Laboratory results as given in patent US8815569B2, “Methods for preserving and/or storing cells having a nitrilase or nitrile hydratase activity” (priority 2003, dated 2014).

Target: T1, E. coli-expressed nitrilase (Alcaligenes faecalis, UniProt P20960)
T1 construct: expressed in transfected cells; host or cells: Escherichia coli TG10 (pDHE1650 pAgro4 pHSG575), whole-cell suspension
Assay: Nitrilase activity test of the cell suspension after storage with aldehyde
Type: cell-based, Escherichia coli
Protocol: The Escherichia coli strain (TG10 pDHE1650 pAgro4 pHSG575) was fermented in a 20 l bioreactor. The reactor, containing a 10 l working volume, was inoculated with 200 ml of preliminary culture from shaker flasks. The preliminary culture medium corresponds to the main culture medium.
The fermentation is carried out at a temperature of 37° C. The gassing is regulated between 8-30 l/min, while the rotation speed of the stirrer is regulated at […], in order to maintain a pO2 of not less than 20%. After a fermentation period of 1 h, the culture is induced with IPTG (0.15 mM). 18.5 g of rhamnose feed solution are then added. After the initially introduced quantity of glycerol has been consumed, glycerol is then fed in continuously. After a fermentation period of 44 h, cell suspensions of 50 g DBM/l and 50 to 60 ku/l are obtained. The cells are cooled down to 4° C.
50 μl of cell suspension are pipetted into 880 μl of sodium potassium phosphate buffer (10 mM) and the whole is equilibrated at 30° C. The reaction is started by adding 20 μl of methanolic mandelonitrile solution (12%). After 10 min, the enzyme reaction is stopped by adding 50 μl of 1M HC. The cell mass is centrifuged off and the concentration of mandelic acid in the supernatant is measured by means of HPLC (ODS Hypersil 100*2.0 mm, mobile phase: 75% H3PO4 (14.8 mM)/25% methanol; flow rate: 0.5 ml/min; injection volume: 2 μl; column temperature: 40° C.; detection: 210 nm; mandelic acid retention time: 0.9 min).
(§1) 14 h after the end of the fermentation, the cell suspension was adjusted to a pH of 6.0, 6.6 or 7.2 with NaOH or H2SO4 and then treated with benzaldehyde. The samples were stored at 4° C. or 22° C. Enzyme activity was determined at 0.6, 3.6 and 6.6 days after the end of the fermentation.
as §1, with “6.0, 6.6.” for “6.0, 6.6”, “with 2-chlorobenzaldehyde.” for “with benzaldehyde.”, “C. The enzyme” for “C. Enzyme”

[1] = storage at 4° C., pH 6.0, 1 mM aldehyde, storage period 0.6 d
[2] = storage at 4° C., pH 6.0, 1 mM aldehyde, storage period 3.6 d
[3] = storage at 4° C., pH 6.0, 1 mM aldehyde, storage period 6.6 d
[4] = storage at 4° C., pH 6.0, 5 mM aldehyde, storage period 0.6 d
[5] = storage at 4° C., pH 6.0, 5 mM aldehyde, storage period 3.6 d
[6] = storage at 4° C., pH 6.0, 5 mM aldehyde, storage period 6.6 d
[7] = storage at 4° C., pH 6.0, 10 mM aldehyde, storage period 0.6 d
[8] = storage at 4° C., pH 6.0, 10 mM aldehyde, storage period 3.6 d
[9] = storage at 4° C., pH 6.0, 10 mM aldehyde, storage period 6.6 d
[10] = storage at 4° C., pH 6.6, 1 mM aldehyde, storage period 0.6 d
[11] = storage at 4° C., pH 6.6, 1 mM aldehyde, storage period 3.6 d
[12] = storage at 4° C., pH 6.6, 1 mM aldehyde, storage period 6.6 d
[13] = storage at 4° C., pH 6.6, 5 mM aldehyde, storage period 0.6 d
[14] = storage at 4° C., pH 6.6, 5 mM aldehyde, storage period 3.6 d
[15] = storage at 4° C., pH 6.6, 5 mM aldehyde, storage period 6.6 d
[16] = storage at 4° C., pH 6.6, 10 mM aldehyde, storage period 0.6 d
[17] = storage at 4° C., pH 6.6, 10 mM aldehyde, storage period 3.6 d
[18] = storage at 4° C., pH 6.6, 10 mM aldehyde, storage period 6.6 d
[19] = storage at 4° C., pH 7.2, 1 mM aldehyde, storage period 0.6 d
[20] = storage at 4° C., pH 7.2, 1 mM aldehyde, storage period 3.6 d
[21] = storage at 4° C., pH 7.2, 1 mM aldehyde, storage period 6.6 d
[22] = storage at 4° C., pH 7.2, 5 mM aldehyde, storage period 0.6 d
[23] = storage at 4° C., pH 7.2, 5 mM aldehyde, storage period 3.6 d
[24] = storage at 4° C., pH 7.2, 5 mM aldehyde, storage period 6.6 d
[25] = storage at 4° C., pH 7.2, 10 mM aldehyde, storage period 0.6 d
[26] = storage at 4° C., pH 7.2, 10 mM aldehyde, storage period 3.6 d
[27] = storage at 4° C., pH 7.2, 10 mM aldehyde, storage period 6.6 d
[28] = storage at 22° C., pH 6.0, 1 mM aldehyde, storage period 0.6 d
[29] = storage at 22° C., pH 6.0, 1 mM aldehyde, storage period 3.6 d
[30] = storage at 22° C., pH 6.0, 1 mM aldehyde, storage period 6.6 d
[31] = storage at 22° C., pH 6.0, 5 mM aldehyde, storage period 0.6 d
[32] = storage at 22° C., pH 6.0, 5 mM aldehyde, storage period 3.6 d
[33] = storage at 22° C., pH 6.0, 5 mM aldehyde, storage period 6.6 d
[34] = storage at 22° C., pH 6.0, 10 mM aldehyde, storage period 0.6 d
[35] = storage at 22° C., pH 6.0, 10 mM aldehyde, storage period 3.6 d
[36] = storage at 22° C., pH 6.0, 10 mM aldehyde, storage period 6.6 d
[37] = storage at 22° C., pH 6.6, 1 mM aldehyde, storage period 0.6 d
[38] = storage at 22° C., pH 6.6, 1 mM aldehyde, storage period 3.6 d
[39] = storage at 22° C., pH 6.6, 1 mM aldehyde, storage period 6.6 d
[40] = storage at 22° C., pH 6.6, 5 mM aldehyde, storage period 0.6 d
[41] = storage at 22° C., pH 6.6, 5 mM aldehyde, storage period 3.6 d
[42] = storage at 22° C., pH 6.6, 5 mM aldehyde, storage period 6.6 d
[43] = storage at 22° C., pH 6.6, 10 mM aldehyde, storage period 0.6 d
[44] = storage at 22° C., pH 6.6, 10 mM aldehyde, storage period 3.6 d
[45] = storage at 22° C., pH 6.6, 10 mM aldehyde, storage period 6.6 d
[46] = storage at 22° C., pH 7.2, 1 mM aldehyde, storage period 0.6 d
[47] = storage at 22° C., pH 7.2, 1 mM aldehyde, storage period 3.6 d
[48] = storage at 22° C., pH 7.2, 1 mM aldehyde, storage period 6.6 d
[49] = storage at 22° C., pH 7.2, 5 mM aldehyde, storage period 0.6 d
[50] = storage at 22° C., pH 7.2, 5 mM aldehyde, storage period 3.6 d
[51] = storage at 22° C., pH 7.2, 5 mM aldehyde, storage period 6.6 d
[52] = storage at 22° C., pH 7.2, 10 mM aldehyde, storage period 0.6 d
[53] = storage at 22° C., pH 7.2, 10 mM aldehyde, storage period 3.6 d
[54] = storage at 22° C., pH 7.2, 10 mM aldehyde, storage period 6.6 d

T1 sequence (P20960 whole entry Q122E/S243P/E312D/I323T/Q324R/P330Q/H331G/T335K/A336I/P338S/V341I/Q343H/T344P): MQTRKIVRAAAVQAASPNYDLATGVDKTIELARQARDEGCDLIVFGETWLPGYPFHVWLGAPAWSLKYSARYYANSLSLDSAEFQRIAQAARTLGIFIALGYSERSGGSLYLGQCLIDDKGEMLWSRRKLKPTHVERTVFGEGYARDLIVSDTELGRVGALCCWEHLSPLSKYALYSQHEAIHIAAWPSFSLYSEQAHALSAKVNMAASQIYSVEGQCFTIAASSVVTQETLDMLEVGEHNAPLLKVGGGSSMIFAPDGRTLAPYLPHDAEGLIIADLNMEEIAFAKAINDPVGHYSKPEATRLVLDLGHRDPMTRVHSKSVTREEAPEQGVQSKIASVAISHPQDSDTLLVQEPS

O=Cc1ccccc1 [benzaldehyde]
Activity in kU/l [1]: 55.1 kU/l
Activity in kU/l [2]: 49.9 kU/l
Activity in kU/l [3]: 48.3 kU/l
Activity in kU/l [4]: 51.8 kU/l
Activity in kU/l [5]: 52.3 kU/l
Activity in kU/l [6]: 53.0 kU/l
Activity in kU/l [7]: 51.3 kU/l
Activity in kU/l [8]: 51.5 kU/l
Activity in kU/l [9]: 50.2 kU/l
Activity in kU/l [10]: 53.2 kU/l
Activity in kU/l [11]: 52.3 kU/l
Activity in kU/l [12]: 52.5 kU/l
Activity in kU/l [13]: 47.1 kU/l
Activity in kU/l [14]: 52.0 kU/l
Activity in kU/l [15]: 55.7 kU/l
Activity in kU/l [16]: 51.3 kU/l
Activity in kU/l [17]: 55.5 kU/l
Activity in kU/l [18]: 51.9 kU/l
Activity in kU/l [19]: 55.8 kU/l
Activity in kU/l [20]: 46.8 kU/l
Activity in kU/l [21]: 47.5 kU/l
Activity in kU/l [22]: 47.1 kU/l
Activity in kU/l [23]: 48.3 kU/l
Activity in kU/l [24]: 50.7 kU/l
Activity in kU/l [25]: 53.8 kU/l
Activity in kU/l [26]: 51.2 kU/l
Activity in kU/l [27]: 49.2 kU/l
Activity in kU/l [28]: 55.1 kU/l
Activity in kU/l [29]: 50.6 kU/l
Activity in kU/l [30]: 51.0 kU/l
Activity in kU/l [31]: 51.8 kU/l
Activity in kU/l [32]: 51.5 kU/l
Activity in kU/l [33]: 54.9 kU/l
Activity in kU/l [34]: 51.3 kU/l
Activity in kU/l [35]: 53.0 kU/l
Activity in kU/l [36]: 49.2 kU/l
Activity in kU/l [37]: 53.2 kU/l
Activity in kU/l [38]: 53.0 kU/l
Activity in kU/l [39]: 53.1 kU/l
Activity in kU/l [40]: 47.1 kU/l
Activity in kU/l [41]: 54.3 kU/l
Activity in kU/l [42]: 58.0 kU/l
Activity in kU/l [43]: 51.3 kU/l
Activity in kU/l [44]: 49.4 kU/l
Activity in kU/l [45]: 55.4 kU/l
Activity in kU/l [46]: 55.8 kU/l
Activity in kU/l [47]: 50.4 kU/l
Activity in kU/l [48]: 48.7 kU/l
Activity in kU/l [49]: 47.1 kU/l
Activity in kU/l [50]: 51.7 kU/l
Activity in kU/l [51]: 52.9 kU/l
Activity in kU/l [52]: 53.8 kU/l
Activity in kU/l [53]: 52.7 kU/l
Activity in kU/l [54]: 51.3 kU/l

O=Cc1ccccc1Cl [2-chlorobenzaldehyde]
Activity in kU/l [1]: 52.4 kU/l
Activity in kU/l [2]: 53.5 kU/l
Activity in kU/l [3]: 56.9 kU/l
Activity in kU/l [4]: 52.5 kU/l
Activity in kU/l [5]: 55.6 kU/l
Activity in kU/l [6]: 53.8 kU/l
Activity in kU/l [7]: 53.5 kU/l
Activity in kU/l [8]: 55.7 kU/l
Activity in kU/l [9]: 47.6 kU/l
Activity in kU/l [10]: 48.8 kU/l
Activity in kU/l [11]: 55.1 kU/l
Activity in kU/l [12]: 54.7 kU/l
Activity in kU/l [13]: 50.6 kU/l
Activity in kU/l [14]: 56.3 kU/l
Activity in kU/l [15]: 53.6 kU/l
Activity in kU/l [16]: 47.4 kU/l
Activity in kU/l [17]: 55.0 kU/l
Activity in kU/l [18]: 58.5 kU/l
Activity in kU/l [19]: 51.3 kU/l
Activity in kU/l [20]: 48.3 kU/l
Activity in kU/l [21]: 45.2 kU/l
Activity in kU/l [22]: 53.3 kU/l
Activity in kU/l [23]: 51.2 kU/l
Activity in kU/l [24]: 48.1 kU/l
Activity in kU/l [25]: 48.3 kU/l
Activity in kU/l [26]: 51.0 kU/l
Activity in kU/l [27]: 49.9 kU/l
Activity in kU/l [28]: 52.4 kU/l
Activity in kU/l [29]: 53.8 kU/l
Activity in kU/l [30]: 54.5 kU/l
Activity in kU/l [31]: 52.5 kU/l
Activity in kU/l [32]: 55.0 kU/l
Activity in kU/l [33]: 59.1 kU/l
Activity in kU/l [34]: 53.5 kU/l
Activity in kU/l [35]: 55.7 kU/l
Activity in kU/l [36]: 52.4 kU/l
Activity in kU/l [37]: 48.8 kU/l
Activity in kU/l [38]: 55.0 kU/l
Activity in kU/l [39]: 57.2 kU/l
Activity in kU/l [40]: 50.6 kU/l
Activity in kU/l [41]: 56.7 kU/l
Activity in kU/l [42]: 55.5 kU/l
Activity in kU/l [43]: 47.4 kU/l
Activity in kU/l [44]: 56.2 kU/l
Activity in kU/l [45]: 58.6 kU/l
Activity in kU/l [46]: 51.3 kU/l
Activity in kU/l [47]: 52.8 kU/l
Activity in kU/l [48]: 53.2 kU/l
Activity in kU/l [49]: 53.3 kU/l
Activity in kU/l [50]: 51.4 kU/l
Activity in kU/l [51]: 50.1 kU/l
Activity in kU/l [52]: 48.3 kU/l
Activity in kU/l [53]: 52.9 kU/l
Activity in kU/l [54]: 54.0 kU/l
